What was measured:
Assay type in all cases: cell-based
[1] = biological target: T1, SMARCA2 (Homo sapiens, UniProt P51531); assay: SMARCA2 Western blot degradation in MV4-11 cells; design: SMARCA2/SMARCA4 protein degradation selectivity in MV4-11 cells; endogenous in cells; host or cells: MV4-11; conditions: for Dmax: MV4-11, MV4-11 cells, read-out: SMARCA2 MSD MV411 degradation 24 h: average Dmax %; for Dmax / DC50 / SMARCA2 MSD MV411 degradation 24 h: average Dmax %: 24 h; for DC50 / Selectivity in MV411 / SMARCA2 MSD MV411 degradation 24 h: average Dmax %: MV4-11 cells; for DC50: read-out: SMARCA2 MSD MV411 degradation 24 h: Mean external-Abs DC50; for Selectivity in MV411: SMARCA2/4 selectivity
[2] = biological target: T2, SMARCA4 (Homo sapiens, UniProt P51532); assay: SMARCA4 Western blot degradation in MV4-11 cells; conditions: for Dmax: MV4-11, MV4-11 cells, read-out: SMARCA4 MSD MV411 degradation 24 h: average Dmax %; for Dmax / DC50: 24 h; for DC50 / SMARCA4 MSD MV411 degradation 24 h: average Dmax %: MV4-11 cells; for DC50: read-out: SMARCA4 MSD MV411 degradation 24 h: Mean external-Abs DC50
T2 construct: SMARCA2/SMARCA4 protein degradation selectivity in MV4-11 cells; endogenous in cells; host or cells: MV4-11
Method in brief: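 Fluorescent LI-COR imaging of Western blots quantified SMARCA2 and SMARCA4 protein remaining in MV4-11 cells after 24 h of compound treatment. β-actin was the loading control, and DC50, Dmax and SMARCA2/4 selectivity are given as letter-coded ranges.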

[3] = biological target: T1, SMARCA2; assay: MSD SMARCA2 degradation in A549 cell line; conditions: for Dmax: A549, A549 cells; for Dmax / DC50: 24 h; for DC50: read-out: SMARCA2 MSD A549 degradation 24 h: Average external-Abs DC50
Method in brief: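 SMARCA2 protein remaining after 24 h exposure of A549 cells (top concentration 1000 nM, 3-fold dilutions) was measured by MSD electrochemiluminescence immunoassay of cell lysates. Results are given as binned DC50 and maximal degradation (Dmax) codes.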

T2 sequence (P51532 whole entry): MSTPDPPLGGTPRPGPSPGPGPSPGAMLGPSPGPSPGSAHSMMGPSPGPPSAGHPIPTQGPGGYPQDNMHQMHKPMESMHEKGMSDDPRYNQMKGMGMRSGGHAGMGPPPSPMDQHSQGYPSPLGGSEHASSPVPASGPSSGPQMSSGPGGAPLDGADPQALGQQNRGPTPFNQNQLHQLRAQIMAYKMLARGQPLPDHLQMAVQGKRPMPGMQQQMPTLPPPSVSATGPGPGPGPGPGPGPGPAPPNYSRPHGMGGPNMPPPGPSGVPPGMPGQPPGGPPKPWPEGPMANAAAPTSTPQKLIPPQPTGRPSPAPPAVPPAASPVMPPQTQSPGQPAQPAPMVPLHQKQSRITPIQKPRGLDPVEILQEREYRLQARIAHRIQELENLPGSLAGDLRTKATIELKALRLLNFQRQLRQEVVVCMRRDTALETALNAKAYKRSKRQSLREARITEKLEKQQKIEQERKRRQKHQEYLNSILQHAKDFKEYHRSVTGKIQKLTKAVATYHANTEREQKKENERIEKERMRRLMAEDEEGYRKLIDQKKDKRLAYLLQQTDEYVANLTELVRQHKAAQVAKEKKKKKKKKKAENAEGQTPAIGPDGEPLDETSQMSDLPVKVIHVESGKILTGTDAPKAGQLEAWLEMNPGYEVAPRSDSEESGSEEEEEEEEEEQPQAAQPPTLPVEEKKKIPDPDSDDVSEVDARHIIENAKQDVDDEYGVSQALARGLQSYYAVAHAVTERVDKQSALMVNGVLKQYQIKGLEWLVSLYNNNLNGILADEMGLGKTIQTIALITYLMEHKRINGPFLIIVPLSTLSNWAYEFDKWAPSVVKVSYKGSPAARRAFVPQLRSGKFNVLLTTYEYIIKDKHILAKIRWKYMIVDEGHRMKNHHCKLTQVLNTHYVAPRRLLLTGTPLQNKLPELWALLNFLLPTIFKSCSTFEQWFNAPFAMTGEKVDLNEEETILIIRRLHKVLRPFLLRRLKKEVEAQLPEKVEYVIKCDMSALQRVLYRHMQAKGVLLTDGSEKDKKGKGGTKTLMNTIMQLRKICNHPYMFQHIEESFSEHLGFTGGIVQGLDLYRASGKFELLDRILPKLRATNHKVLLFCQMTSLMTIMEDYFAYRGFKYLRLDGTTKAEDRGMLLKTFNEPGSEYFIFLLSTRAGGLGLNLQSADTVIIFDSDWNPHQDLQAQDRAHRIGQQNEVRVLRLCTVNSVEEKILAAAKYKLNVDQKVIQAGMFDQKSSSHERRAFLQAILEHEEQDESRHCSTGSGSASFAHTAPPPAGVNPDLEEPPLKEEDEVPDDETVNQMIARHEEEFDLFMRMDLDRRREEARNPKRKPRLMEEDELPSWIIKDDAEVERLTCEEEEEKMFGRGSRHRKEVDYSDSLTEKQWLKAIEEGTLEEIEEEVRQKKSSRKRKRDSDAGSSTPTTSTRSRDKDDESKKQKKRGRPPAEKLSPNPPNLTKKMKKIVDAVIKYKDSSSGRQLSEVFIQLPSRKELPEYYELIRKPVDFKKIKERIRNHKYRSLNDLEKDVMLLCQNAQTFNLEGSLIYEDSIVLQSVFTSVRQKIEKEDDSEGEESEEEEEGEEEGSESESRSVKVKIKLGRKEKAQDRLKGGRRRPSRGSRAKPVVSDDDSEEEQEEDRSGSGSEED
T1 sequence (P51531 whole entry): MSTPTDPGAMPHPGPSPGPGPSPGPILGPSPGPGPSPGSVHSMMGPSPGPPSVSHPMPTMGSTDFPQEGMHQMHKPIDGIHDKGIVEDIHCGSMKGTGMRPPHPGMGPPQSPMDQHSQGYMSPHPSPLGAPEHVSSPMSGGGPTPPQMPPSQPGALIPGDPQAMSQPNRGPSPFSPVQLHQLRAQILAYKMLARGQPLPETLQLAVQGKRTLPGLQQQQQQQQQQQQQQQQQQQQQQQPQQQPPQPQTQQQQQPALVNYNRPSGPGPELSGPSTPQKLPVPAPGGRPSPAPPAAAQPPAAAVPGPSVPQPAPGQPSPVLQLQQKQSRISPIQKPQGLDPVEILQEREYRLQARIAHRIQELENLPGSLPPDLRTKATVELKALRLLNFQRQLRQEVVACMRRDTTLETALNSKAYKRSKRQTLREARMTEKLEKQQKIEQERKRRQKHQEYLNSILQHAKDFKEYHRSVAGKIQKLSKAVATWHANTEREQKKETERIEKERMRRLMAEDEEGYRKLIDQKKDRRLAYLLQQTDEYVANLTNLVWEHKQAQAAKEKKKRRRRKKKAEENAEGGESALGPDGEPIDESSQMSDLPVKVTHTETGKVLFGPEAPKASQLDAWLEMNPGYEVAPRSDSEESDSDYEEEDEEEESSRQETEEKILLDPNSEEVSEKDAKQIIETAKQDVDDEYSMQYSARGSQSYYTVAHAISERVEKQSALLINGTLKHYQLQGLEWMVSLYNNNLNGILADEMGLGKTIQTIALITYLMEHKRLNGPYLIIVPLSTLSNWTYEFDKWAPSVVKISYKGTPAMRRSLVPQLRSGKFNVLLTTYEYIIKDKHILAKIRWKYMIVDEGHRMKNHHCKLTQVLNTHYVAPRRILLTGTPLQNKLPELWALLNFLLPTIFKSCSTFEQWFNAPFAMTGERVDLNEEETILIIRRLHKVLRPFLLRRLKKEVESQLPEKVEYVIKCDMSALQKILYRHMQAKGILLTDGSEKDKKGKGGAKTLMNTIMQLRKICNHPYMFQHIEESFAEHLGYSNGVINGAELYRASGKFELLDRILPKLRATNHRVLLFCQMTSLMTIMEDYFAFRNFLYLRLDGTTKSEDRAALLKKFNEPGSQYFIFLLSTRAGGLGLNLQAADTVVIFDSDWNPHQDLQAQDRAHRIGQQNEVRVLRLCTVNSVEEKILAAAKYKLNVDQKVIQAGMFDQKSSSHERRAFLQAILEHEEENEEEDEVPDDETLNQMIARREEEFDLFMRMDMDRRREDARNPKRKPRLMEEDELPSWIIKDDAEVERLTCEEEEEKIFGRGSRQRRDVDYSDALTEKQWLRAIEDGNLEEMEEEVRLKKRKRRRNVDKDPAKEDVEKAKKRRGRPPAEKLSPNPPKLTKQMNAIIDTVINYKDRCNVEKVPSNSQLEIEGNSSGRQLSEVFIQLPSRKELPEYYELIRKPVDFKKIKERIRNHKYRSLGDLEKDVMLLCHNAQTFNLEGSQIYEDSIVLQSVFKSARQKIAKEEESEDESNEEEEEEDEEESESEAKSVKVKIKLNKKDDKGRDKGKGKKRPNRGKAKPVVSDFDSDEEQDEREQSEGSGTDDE

With C#Cc1ccc(CNC(=O)[C@@H]2C[C@@H](O)CN2C(=O)[C@@H](NC(=O)N2CC3(CC(CCN4CCC(c5cnc(N6CCc7[nH]c8nnc(-c9ccccc9O)cc8c7[C@H]6C)nc5)CC4)C3)C2)C(C)(C)C)cc1 [I-416] the Dmax [1] was over 90%, the DC50 [1] was 1 to 10 nM and the “Selectivity in MV411” value [1] was “C (C (10-100 fold))”. It also gave a Dmax [2] of over 90%, a DC50 [2] of 10 to 100 nM and a Dmax [3] of over 90%. The DC50 ([3]; A549 cells) was 10 to 50 nM.
With C[C@H](NC(=O)[C@@H]1C[C@@H](O)CN1C(=O)[C@@H](NC(=O)[C@H]1CCC2(CC1)C[C@H](N1CCC(c3cnc(N4CCN5c6cc(-c7ccccc7O)nnc6NC[C@H]5C4)nc3)CC1)C2)C(C)(C)C)c1ccc(-c2ccnn2C)cc1 (single isomer, unassigned) [I-21] the Dmax [1] was over 90%, the DC50 [1] was under 1 nM and the “Selectivity in MV411” value [1] was “C (C (10-100 fold))”. It also gave a Dmax [2] of over 90%, a DC50 [2] of 1 to 10 nM and a Dmax [3] of over 90%. It also gave a DC50 ([3]; A549 cells) of 10 to 50 nM.
In the case of C#Cc1ccc(CNC(=O)[C@@H]2C[C@@H](O)CN2C(=O)[C@@H](NC(=O)C2CCC3(CC2)CC(N2CCC(N4CCC[C@H](C(=O)N5CCN6c7cc(-c8ccccc8O)nnc7NC[C@H]6C5)C4)CC2)C3)C(C)(C)C)cc1 (single isomer, unassigned) [I-90], the Dmax [1] is reported as 70 to 90%, the DC50 [1] is reported as 10 to 100 nM and the “Selectivity in MV411” value [1] is reported as “C (C (10-100 fold))”. The Dmax [2] was under 50%, the DC50 [2] was over 100 nM and the Dmax [3] was 70 to 90%. It also gave a DC50 ([3]; A549 cells) of over 100 nM.
In the case of C#Cc1ccc(CNC(=O)[C@@H]2C[C@@H](O)CN2C(=O)[C@@H](NC(=O)[C@H]2CCC3(CC2)C[C@H](N2CCC(c4cnc(N5CCN6c7cc(-c8ccccc8O)nnc7NC[C@H]6C5)nc4)CC2)C3)C(C)(C)C)c(OCCCOC)c1 (single isomer, unassigned) [I-130], the Dmax [1] is reported as over 90%, the DC50 [1] is reported as 1 to 10 nM and the “Selectivity in MV411” value [1] is reported as “D (D (<10 fold))”. It also gave a Dmax [2] of over 90%, a DC50 [2] of 10 to 100 nM and a Dmax [3] of over 90%. For the same compound, the DC50 ([3]; A549 cells) was under 10 nM.
With C#Cc1ccc(CNC(=O)[C@@H]2C[C@@H](O)CN2C(=O)[C@@H](NC(=O)N2CC3(CC(N4CCC(N5CC6(CC(N7CCN8c9cc(-c%10ccccc%10O)nnc9NC[C@H]8C7)C6)C5)CC4)C3)C2)C(C)(C)C)cc1 [I-224] the Dmax [1] was 70 to 90%, the DC50 [1] was 1 to 10 nM and the “Selectivity in MV411” value [1] was “C (C (10-100 fold))”. For the same compound, the Dmax [2] was 70 to 90%, the DC50 [2] was 10 to 100 nM and the Dmax [3] was over 90%. The DC50 ([3]; A549 cells) was 50 to 100 nM.
For C#Cc1ccc(CNC(=O)[C@@H]2C[C@@H](O)CN2C(=O)[C@@H](NC(=O)N2CC3(CC(N4CCC(c5cnc(N6CCc7[nH]c8nnc(-c9ccccc9O)cc8c7[C@H]6C)nc5)CC4)C3)C2)C(C)(C)C)cc1 (single isomer, unassigned) [I-73], the Dmax [1] was over 90%, the DC50 [1] was 1 to 10 nM and the “Selectivity in MV411” value [1] was “C (C (10-100 fold))”. It also gave a Dmax [2] of 70 to 90%, a DC50 [2] of 10 to 100 nM and a Dmax [3] of over 90%. It also gave a DC50 ([3]; A549 cells) of under 10 nM.
C#Cc1ccc(CNC(=O)[C@@H]2C[C@@H](O)CN2C(=O)[C@@H](NC(=O)[C@H]2CCC3(CC2)C[C@H](N2CCC(N4CCC(N5CCN6c7cc(-c8ccccc8O)nnc7NC[C@H]6C5)CC4)CC2)C3)C(C)(C)C)c(OC)c1 (some centres unmarked) [I-178] was tested, and the “SMARCA2 MSD MV411 degradation 24 h: average Dmax %” value [1] was “B (B (>70-90% degradation))”, the DC50 [1] was 10 to 100 nM and the “Selectivity in MV411” value [1] was “B (B (>100-500 fold))”. For the same compound, the “SMARCA4 MSD MV411 degradation 24 h: average Dmax %” value [2] was “C (C (50-70% degradation))”, the DC50 [2] was over 100 nM and the “SMARCA2 MSD A549 degradation 24 h: Average Dmax %” value ([3]; A549 cells) was “A (A (>90% degradation))”. For the same compound, the DC50 ([3]; A549 cells) was over 100 nM.
For C#Cc1ccc(CNC(=O)[C@@H]2C[C@@H](O)CN2C(=O)[C@@H](NC(=O)N2CCN(CC3CCN([C@H]4CC[C@@H](N5CCc6[nH]c7nnc(-c8ccccc8O)cc7c6[C@H]5C)CC4)CC3)CC2)C(C)(C)C)cc1 [I-203], the Dmax [1] was under 50%, the DC50 [1] was over 100 nM and the “Selectivity in MV411” value [1] was “C (C (10-100 fold))”. It also gave a Dmax [2] of under 50%, a DC50 [2] of over 100 nM and a Dmax [3] of 70 to 90%. For the same compound, the DC50 ([3]; A549 cells) was over 100 nM.
For Cc1ncsc1-c1ccc(CNC(=O)[C@@H]2C[C@@H](O)CN2C(=O)C(c2cc(N3CCC4(CC3)CC(N3CCC(c5cnc(N6CCc7[nH]c8nnc(-c9ccccc9O)cc8c7[C@@H]6C)nc5)CC3)C4)no2)C(C)C)cc1 (single isomer, unassigned) [I-12], the Dmax [1] was 70 to 90%, the DC50 [1] was 10 to 100 nM and the “Selectivity in MV411” value [1] was “D (D (<10 fold))”. It also gave a Dmax [2] of over 90%, a DC50 [2] of 10 to 100 nM and a Dmax [3] of 70 to 90%. The DC50 ([3]; A549 cells) was 50 to 100 nM.
With C#Cc1ccc(CNC(=O)[C@@H]2C[C@@H](O)CN2C(=O)[C@@H](NC(=O)N2CC3(CC(N4CCC(c5cnc(N6CCc7[nH]c8nnc(-c9ccccc9O)cc8c7[C@H]6C)nc5)CC4)C3)C2)C(C)(C)C)c(F)c1 [I-120] the Dmax [1] was 70 to 90%, the DC50 [1] was 10 to 100 nM and the “Selectivity in MV411” value [1] was “B (B (>100-500 fold))”. The Dmax [2] was 50 to 70%, the DC50 [2] was over 100 nM and the Dmax [3] was over 90%. It also gave a DC50 ([3]; A549 cells) of 10 to 50 nM.
C#Cc1ccc(CNC(=O)[C@@H]2C[C@@H](O)CN2C(=O)[C@@H](NC(=O)[C@H]2CCC3(CC2)C[C@H](N2CCC(c4cnc(N5CCN6c7cc(-c8ccccc8O)nnc7NC[C@H]6C5)nc4)CC2)C3)C(C)(C)C)c(OC)c1 (single isomer, unassigned) [I-125] was tested, and the “SMARCA2 MSD MV411 degradation 24 h: average Dmax %” value [1] was “B (B (>70-90% degradation))”, the DC50 [1] was 1 to 10 nM and the “Selectivity in MV411” value [1] was “C (C (10-100 fold))”. For the same compound, the “SMARCA4 MSD MV411 degradation 24 h: average Dmax %” value [2] was “C (C (50-70% degradation))”, the DC50 [2] was over 100 nM and the Dmax [3] was over 90%. The DC50 ([3]; A549 cells) was under 10 nM.
C#Cc1ccc(CNC(=O)[C@@H]2C[C@@H](O)CN2C(=O)[C@@H](NC(=O)[C@H]2CCC3(CC2)C[C@H](N2CCC(N4CCC(N5CCN6c7cc(-c8ccccc8O)nnc7NC[C@H]6C5)CC4)CC2)C3)C(C)(C)C)c(OC)c1 (single isomer, unassigned) [I-177] was tested, and the Dmax [1] was 70 to 90%, the DC50 [1] was 10 to 100 nM and the “Selectivity in MV411” value [1] was “C (C (10-100 fold))”. It also gave a Dmax [2] of 50 to 70%, a DC50 [2] of over 100 nM and a Dmax [3] of over 90%. For the same compound, the DC50 ([3]; A549 cells) was over 100 nM.
For C#Cc1ccc(CNC(=O)[C@@H]2C[C@@H](O)CN2C(=O)[C@@H](NC(=O)N2CCN(CC3CCN([C@H]4CC[C@H](N5CCc6[nH]c7nnc(-c8ccccc8O)cc7c6[C@H]5C)CC4)CC3)CC2)C(C)(C)C)cc1 [I-204], the Dmax [1] was under 50%, the DC50 [1] was over 100 nM and the “Selectivity in MV411” value [1] was “C (C (10-100 fold))”. The Dmax [2] was under 50%, the DC50 [2] was over 100 nM and the Dmax [3] was 70 to 90%. For the same compound, the DC50 ([3]; A549 cells) was over 100 nM.
For C#Cc1ccc(CNC(=O)[C@@H]2C[C@@H](O)CN2C(=O)[C@@H](NC(=O)N2CC3(CC(N4CCC(N5CCC(N6CCc7[nH]c8nnc(-c9ccccc9O)cc8c7[C@@H]6C)CC5)CC4)C3)C2)C(C)(C)C)cc1 [I-180], the Dmax [1] was 70 to 90%, the DC50 [1] was 10 to 100 nM and the “Selectivity in MV411” value [1] was “D (D (<10 fold))”. For the same compound, the Dmax [2] was over 90%, the DC50 [2] was over 100 nM and the Dmax [3] was over 90%. For the same compound, the DC50 ([3]; A549 cells) was over 100 nM.

Source: patent US20250170248A1, “SMARCA DEGRADERS AND USES THEREOF” (Kymera Therapeutics, Inc., priority 2021, published 2025)
